According to US8759318B2, “Phosphoramidate derivatives of guanosine nucleoside compounds for treatment of viral infections” (Inhibitex, Inc., priority 2009, dated 2014):
Like-named read-outs stand apart in the source and are kept apart here.

Key:
in vitro = settings: human
[1] = test system: HCV replicon (Genotype 1b); assay: Luciferase genotype 1b replicon potency assay; settings: Hepatitis C virus
[2] = GETYPE1B, read-out: IC50 μM, HCV genotype 1b luciferase replicon, Renilla luciferase reporter

In the case of COc1nc(N)nc2c1ncn2C1O[C@H](COP(=O)(N[C@H](C(=O)OCc2ccc(F)cc2F)C(C)C)Oc2cccc3ncccc23)[C@@H](O)[C@@]1(C)O (stereo partly drawn) [Example 49, (2S)-2,4-difluorobenzyl 2-((((2R,3R,4R)-5-(2-amino-6-methoxy-9H-purin-9-yl)-3,4-dihydroxy-4-methyltetrahydrofuran-2-yl)methoxy)(quinolin-5-yloxy)phosphorylamino)-3-methylbutanoate], the CC50 (in vitro) is reported as greater than 100000 nM and the IC50 [1, 2] is reported as 0.17 µM.

Compound COc1nc(N)nc2c1ncn2C1O[C@H](COP(=O)(N[C@H](C(=O)OCC(C)(C)C)C(C)C)Oc2cccc3ncccc23)[C@@H](O)[C@@]1(C)O (stereo partly drawn) [Example 50, (2S)-neopentyl 2-((((2R,3R,4R)-5-(2-amino-6-methoxy-9H-purin-9-yl)-3,4-dihydroxy-4-methyltetrahydrofuran-2-yl)methoxy)(quinolin-5-yloxy)phosphorylamino)-3-methylbutanoate] has a CC50 (in vitro) greater than 100000 nM and an IC50 [1, 2] of 0.55 µM.

COc1nc(N)nc2c1ncn2C1O[C@H](COP(=O)(N[C@H](C(=O)OCc2ccc(F)cc2F)C(C)C)Oc2ccc3ncccc3c2)[C@@H](O)[C@@]1(C)O (stereo partly drawn) [Example 51, (2S)-2,4-difluorobenzyl 2-((((2R,3R,4R)-5-(2-amino-6-methoxy-9H-purin-9-yl)-3,4-dihydroxy-4-methyltetrahydrofuran-2-yl)methoxy)(quinolin-6-yloxy)phosphorylamino)-3-methylbutanoate] showed a CC50 (in vitro) greater than 100000 nM and an IC50 [1, 2] of 0.11 µM.

COc1nc(N)nc2c1ncn2C1O[C@H](COP(=O)(N[C@H](C(=O)OCC(C)(C)C)C(C)C)Oc2ccc3ncccc3c2)[C@@H](O)[C@@]1(C)O (stereo partly drawn) [Example 52, (2S)-neopentyl 2-((((2R,3R,4R)-5-(2-amino-6-methoxy-9H-purin-9-yl)-3,4-dihydroxy-4-methyltetrahydrofuran-2-yl)methoxy)(quinolin-6-yloxy)phosphorylamino)-3-methylbutanoate] showed a CC50 (in vitro) greater than 100000 nM and an IC50 [1, 2] of 0.19 µM.

With COc1nc(N)nc2c1ncn2C1O[C@H](COP(=O)(N[C@H](C(=O)OCC(C)(C)C)C(C)C)Oc2cccc3cccnc23)[C@@H](O)[C@@]1(C)O (stereo partly drawn) [Example 53, (2S)-neopentyl 2-((((2R,3R,4R)-5-(2-amino-6-methoxy-9H-purin-9-yl)-3,4-dihydroxy-4-methyltetrahydrofuran-2-yl)methoxy)(quinolin-8-yloxy)phosphorylamino)-3-methylbutanoate] the CC50 (in vitro) was greater than 100000 nM and the IC50 [1, 2] was 0.88 µM.

With COc1nc(N)nc2c1ncn2C1O[C@H](COP(=O)(N[C@H](C(=O)OCC(C)(C)C)C(C)C)Oc2cc(C(C)(C)C)cc3ccccc23)[C@@H](O)[C@@]1(C)O (stereo partly shown) [Example 55] the CC50 (in vitro) was 13000 nM and the IC50 [1, 2] was 2.1 µM.

COc1nc(N)nc2c1ncn2C1O[C@H](COP(=O)(N[C@H](C(=O)OCC(C)(C)C)C(C)C)Oc2cc(C(C)(C)C)cc3ccc(C(C)(C)C)cc23)[C@@H](O)[C@@]1(C)O (stereo partly shown) [Example 56] gave a CC50 (in vitro) of 13000 nM and an IC50 [1, 2] of 2.1 µM.

In the case of COc1nc(N)nc2c1ncn2C1O[C@H](COP(=O)(N[C@H](C)C(=O)OCC(C)(C)C)Oc2cccc3ccccc23)[C@@H](O)[C@@]1(C)O (stereo partly shown) [Example 57], the CC50 (in vitro) is reported as 51000 nM and the IC50 [1, 2] is reported as 0.24 µM.

COc1nc(N)nc2c1ncn2C1O[C@H](COP(=O)(N[C@@H](CCSC)C(=O)O[C@@H](C)c2ccccc2)Oc2cccc3ccccc23)[C@@H](O)[C@@]1(C)O (stereo partly drawn) [Example 59, (2S)-((S)-1-phenylethyl) 2-((((2R,3R,4R)-5-(2-amino-6-methoxy-9H-purin-9-yl)-3,4-dihydroxy-4-methyltetrahydrofuran-2-yl)methoxy)(naphthalen-1-yloxy)phosphorylamino)-4-(methylthio)butanoate] gave a CC50 (in vitro) of 30000 nM and an IC50 [1, 2] of 0.32 µM.

COc1nc(N)nc2c1ncn2C1O[C@H](COP(=O)(N[C@@H](CCSC)C(=O)OCC(C)(C)C)Oc2cccc3ccccc23)[C@@H](O)[C@@]1(C)O (stereo partly shown) [Example 60] gave a CC50 (in vitro) of 28000 nM and an IC50 [1, 2] of 0.06 µM.

Compound COc1nc(N)nc2c1ncn2[C@@H]1O[C@H](COP(=O)(N[C@@H](CC(C)C)C(=O)OCC(C)(C)C)Oc2cccc3ccccc23)[C@@H](O)[C@@]1(C)O (stereo partly shown) [Example 61] has a CC50 (in vitro) of 14000 nM and an IC50 [1, 2] of 0.071 µM.

For CCC(C)[C@H](NP(=O)(OC[C@H]1OC(n2cnc3c(OC)nc(N)nc32)[C@](C)(O)[C@@H]1O)Oc1cccc2ccccc12)C(=O)OCC(C)(C)C (stereo partly shown) [Example 62], the CC50 (in vitro) was 18000 nM and the IC50 [1, 2] was 0.86 µM.

Compound COc1nc(N)nc2c1ncn2C1O[C@H](COP(=O)(N[C@H](C(=O)OCc2ccccc2)c2ccccc2)Oc2cccc3ccccc23)[C@@H](O)[C@@]1(C)O (stereo partly shown) [Example 63] has a CC50 (in vitro) of 50000 nM and an IC50 [1, 2] of 0.028 µM.

For COC(=O)[C@@H](NP(=O)(OC[C@H]1OC(n2cnc3c(OC)nc(N)nc32)[C@](C)(O)[C@@H]1O)Oc1cccc2ccccc12)c1ccccc1 (stereo partly shown) [Example 64], the CC50 (in vitro) was greater than 100000 nM and the IC50 [1, 2] was 0.49 µM.

In the case of COc1nc(N)nc2c1ncn2C1O[C@H](COP(=O)(N[C@H](C(=O)OCC(C)(C)C)c2ccccc2)Oc2cccc3ccccc23)[C@@H](O)[C@@]1(C)O (stereo partly shown) [Example 66], the CC50 (in vitro) is reported as 19000 nM and the IC50 [1, 2] is reported as 0.032 µM.

Work on COc1nc(N)nc2c1ncn2C1O[C@H](COP(=O)(N[C@H](C(=O)OC2CCCCC2)c2ccccc2)Oc2cccc3ccccc23)[C@@H](O)[C@@]1(C)O (stereo partly drawn) [Example 67, (2S)-cyclohexyl 2-((((2R,3R,4R)-5-(2-amino-6-methoxy-9H-purin-9-yl)-3,4-dihydroxy-4-methyltetrahydrofuran-2-yl)methoxy)(naphthalen-1-yloxy)phosphorylamino)-2-phenylacetate] yielded a CC50 (in vitro) of 22000 nM and an IC50 [1, 2] of 0.054 µM.

COc1nc(N)nc2c1ncn2C1O[C@H](COP(=O)(N[C@@H](C(=O)OCC(C)(C)C)c2ccccc2)Oc2cccc3ccccc23)[C@@H](O)[C@@]1(C)O (stereo partly drawn) [Example 70, (2R)-neopentyl 2-((((2R,3R,4R)-5-(2-amino-6-methoxy-9H-purin-9-yl)-3,4-dihydroxy-4-methyltetrahydrofuran-2-yl)methoxy)(naphthalen-1-yloxy)phosphorylamino)-2-phenylacetate] gave a CC50 (in vitro) of 38000 nM and an IC50 [1, 2] of 0.077 µM.

For COc1nc(N)nc2c1ncn2C1O[C@H](COP(=O)(N[C@@H](C(=O)OC2CCCCC2)c2ccccc2)Oc2cccc3ccccc23)[C@@H](O)[C@@]1(C)O (stereo partly drawn) [Example 71, (2R)-cyclohexyl 2-((((2R,3R,4R)-5-(2-amino-6-methoxy-9H-purin-9-yl)-3,4-dihydroxy-4-methyltetrahydrofuran-2-yl)methoxy)(naphthalen-1-yloxy)phosphorylamino)-2-phenylacetate], the CC50 (in vitro) was 26000 nM and the IC50 [1, 2] was 2.5 µM.

Compound CCOc1nc(N)nc2c1ncn2C1O[C@H](COP(=O)(N[C@@H](C)C(=O)OCc2ccccc2)Oc2cccc3ccccc23)[C@@H](O)[C@@]1(C)O (stereo partly drawn) [Example 73, (2S)-benzyl 2-((((2R,3R,4R)-5-(2-amino-6-ethoxy-9H-purin-9-yl)-3,4-dihydroxy-4-methyltetrahydrofuran-2-yl)methoxy)(naphthalen-1-yloxy)phosphorylamino)propanoate] has a CC50 (in vitro) of 11000 nM and an IC50 [1, 2] of 0.037 µM.

CCOc1nc(N)nc2c1ncn2C1O[C@H](COP(=O)(N[C@@H](C)C(=O)OCc2ccc(F)cc2F)Oc2cccc3ccccc23)[C@@H](O)[C@@]1(C)O (stereo partly drawn) [Example 74, (2S)-2,4-difluorobenzyl 2-((((2R,3R,4R)-5-(2-amino-6-ethoxy-9H-purin-9-yl)-3,4-dihydroxy-4-methyltetrahydrofuran-2-yl)methoxy)(naphthalen-1-yloxy)phosphorylamino)propanoate] showed a CC50 (in vitro) of 17000 nM and an IC50 [1, 2] of 0.034 µM.

CCOc1nc(N)nc2c1ncn2C1O[C@H](COP(=O)(N[C@@H](C)C(=O)O[C@@H](C)c2ccccc2)Oc2cccc3ccccc23)[C@@H](O)[C@@]1(C)O (stereo partly drawn) [Example 75, (2S)-((S)-1-phenylethyl) 2-((((2R,3R,4R)-5-(2-amino-6-ethoxy-9H-purin-9-yl)-3,4-dihydroxy-4-methyltetrahydrofuran-2-yl)methoxy)(naphthalen-1-yloxy)phosphorylamino)propanoate] showed a CC50 (in vitro) of 12000 nM and an IC50 [1, 2] of 0.063 µM.

In the case of CCOc1nc(N)nc2c1ncn2C1O[C@H](COP(=O)(N[C@@H](C)C(=O)OCC(C)(C)C)Oc2cccc3ccccc23)[C@@H](O)[C@@]1(C)O (stereo partly shown) [Example 76], the CC50 (in vitro) is reported as 10000 nM and the IC50 [1, 2] is reported as 0.01 µM.

Compound CCOc1nc(N)nc2c1ncn2C1O[C@H](COP(=O)(N[C@@H](C)C(=O)OC(C)C)Oc2cccc3ccccc23)[C@@H](O)[C@@]1(C)O (stereo partly drawn) [Example 77, (2S)-isopropyl 2-((((2R,3R,4R)-5-(2-amino-6-ethoxy-9H-purin-9-yl)-3,4-dihydroxy-4-methyltetrahydrofuran-2-yl)methoxy)(naphthalen-1-yloxy)phosphorylamino)propanoate] has a CC50 (in vitro) of 40000 nM and an IC50 [1, 2] of 0.11 µM.

In the case of CCOc1nc(N)nc2c1ncn2C1O[C@H](COP(=O)(N[C@@H](C)C(=O)OC2CCOCC2)Oc2cccc3ccccc23)[C@@H](O)[C@@]1(C)O (stereo partly drawn) [Example 78, (2S)-tetrahydro-2H-pyran-4-yl 2-((((2R,3R,4R)-5-(2-amino-6-ethoxy-9H-purin-9-yl)-3,4-dihydroxy-4-methyltetrahydrofuran-2-yl)methoxy)(naphthalen-1-yloxy)phosphorylamino)propanoate], the CC50 (in vitro) is reported as 47000 nM and the IC50 [1, 2] is reported as 0.059 µM.

CCOc1nc(N)nc2c1ncn2C1O[C@H](COP(=O)(N[C@H](C(=O)OCC(C)(C)C)C(C)C)Oc2cccc3ccccc23)[C@@H](O)[C@@]1(C)O (stereo partly drawn) [Example 79, (2S)-neopentyl 2-((((2R,3R,4R)-5-(2-amino-6-ethoxy-9H-purin-9-yl)-3,4-dihydroxy-4-methyltetrahydrofuran-2-yl)methoxy)(naphthalen-1-yloxy)phosphorylamino)-3-methylbutanoate] gave a CC50 (in vitro) of 24000 nM and an IC50 [1, 2] of 0.22 µM.

With CNc1nc(N)nc2c1ncn2C1O[C@H](COP(=O)(N[C@@H](C)C(=O)OCC(C)(C)C)Oc2cccc3ccccc23)[C@@H](O)[C@@]1(C)O (stereo partly drawn) [Example 81, (2S)-neopentyl 2-((((2R,3R,4R)-5-(2-amino-6-(methylamino)-9H-purin-9-yl)-3,4-dihydroxy-4-methyltetrahydrofuran-2-yl)methoxy)(naphthalen-1-yloxy)phosphorylamino)propanoate] the CC50 (in vitro) was 48000 nM and the IC50 ([1]; read-out: IC50 μM) was 0.033 µM.
